For experiment [1], the target named is T1, human serotonin transporters (Homo sapiens, UniProt P31645).
T1 construct: expressed in transfected cells
Nature of the experiment: Serotonin transporter binding assay ([3H]-citalopram competition, HEK-hSERT cell membranes). An outline of the steps:
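Competition binding against 1 nM [3H]-citalopram (1 hr, 25 °C, Tris pH 7.4 with NaCl/KCl) on stably transfected HEK-hSERT cell membranes, bound ligand collected on filters. Fluoxetine (10 μM) defined nonspecific binding; curve midpoint gives IC50, convertible to Ki by Cheng–Prusoff.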

Experiment [2] concerns the target T2, neurokinin-1 (NK-1) receptor (Homo sapiens, UniProt P25103).
T2 construct: a human glioblastoma-astrocytoma cell line that endogenously expresses the neurokinin-1 (NK-1) receptor; endogenous in cells; host or cells: U373 human glioblastoma-astrocytoma cells (membranes)
Description: NK-1 Binding assay ([125I] Substance P competition, U373 cell membranes). The conditions noted are these: Table 2; U373 membranes, [125I] Substance P displacement; read-out: NK-1 IC50. The gist of the method: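 Membranes were prepared from U373 human glioblastoma-astrocytoma cells, which express NK-1 endogenously, in 50 mM Tris-HCl pH 7.4 with 3 mM MnCl2, BSA and protease inhibitors. IC50 taken as the midpoint of the specific-binding displacement curve.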

[3] abbreviates: Table 2, HEK-hSERT membranes, [3H]-citalopram displacement, read-out: SERT IC50.

Each structure is given as a SMILES string. Like-named read-outs stand apart in the source and are kept apart here. A value given as a limit tells only on which side of the number the result lay.

T1 sequence (P31645 whole entry): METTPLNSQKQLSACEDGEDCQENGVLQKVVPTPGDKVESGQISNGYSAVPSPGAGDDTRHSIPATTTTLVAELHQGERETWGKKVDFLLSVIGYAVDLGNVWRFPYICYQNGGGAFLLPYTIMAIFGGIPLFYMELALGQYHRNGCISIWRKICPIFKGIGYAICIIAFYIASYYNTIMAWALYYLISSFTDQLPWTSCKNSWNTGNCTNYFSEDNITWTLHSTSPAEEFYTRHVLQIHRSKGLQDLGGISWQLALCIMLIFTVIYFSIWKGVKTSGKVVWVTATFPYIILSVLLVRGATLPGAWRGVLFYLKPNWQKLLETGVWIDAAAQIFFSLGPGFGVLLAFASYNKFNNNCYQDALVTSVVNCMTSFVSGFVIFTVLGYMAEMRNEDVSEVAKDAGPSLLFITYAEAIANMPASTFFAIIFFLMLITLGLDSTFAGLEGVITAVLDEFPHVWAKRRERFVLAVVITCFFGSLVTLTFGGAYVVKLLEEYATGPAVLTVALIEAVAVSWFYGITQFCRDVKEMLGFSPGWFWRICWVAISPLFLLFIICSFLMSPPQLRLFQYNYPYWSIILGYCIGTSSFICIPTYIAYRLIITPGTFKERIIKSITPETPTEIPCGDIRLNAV
T2 sequence (P25103 whole entry): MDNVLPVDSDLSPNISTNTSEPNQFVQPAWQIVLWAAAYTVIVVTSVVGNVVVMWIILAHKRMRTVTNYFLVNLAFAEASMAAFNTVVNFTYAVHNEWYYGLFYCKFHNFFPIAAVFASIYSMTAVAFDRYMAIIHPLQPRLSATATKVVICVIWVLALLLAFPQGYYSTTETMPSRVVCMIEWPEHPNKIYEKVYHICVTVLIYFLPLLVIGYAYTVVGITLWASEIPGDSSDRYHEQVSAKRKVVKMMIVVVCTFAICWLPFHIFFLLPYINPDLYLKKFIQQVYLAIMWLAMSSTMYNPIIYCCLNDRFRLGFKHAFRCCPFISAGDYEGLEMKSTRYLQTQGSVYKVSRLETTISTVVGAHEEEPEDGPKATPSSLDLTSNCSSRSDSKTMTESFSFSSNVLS

For `Fc1cccc(-c2cc(COCC3(c4ccccc4)CCNCC3)cc(C(F)(F)F)c2)c1F`, the IC50 in experiment [1] (setting [3]) and in experiment [2] was 0.01 to 100 nM in each case.
In the case of `Fc1ccc(F)c(-c2cc(COCC3(c4ccccc4)CCNCC3)cc(C(F)(F)F)c2)c1`, the IC50 in experiment [1] (setting [3]) and in experiment [2] was 0.01 to 100 nM throughout.
On to `FC(F)(F)c1cc(COCC2(c3ccccc3)CCNCC2)cc(-c2cc(Cl)ccc2Cl)c1`, for which the IC50 – broadly, the point on the concentration scale where inhibition reaches its midpoint – was 0.01 to 100 nM in experiment [1] (setting [3]) and above 300 nM in experiment [2].
`Cc1ccc(C)c(-c2cc(COCC3(c4ccccc4)CCNCC3)cc(C(F)(F)F)c2)c1`: the concentration for half-maximal inhibition (IC50) was 0.01 to 100 nM in experiment [1] (setting [3]) and above 300 nM in experiment [2].
Regarding `COc1ccc(F)cc1-c1cc(COCC2(c3ccccc3)CCNCC2)cc(C(F)(F)F)c1`, the IC50 is 0.01 to 100 nM in experiment [1] (setting [3]) and 100 to 300 nM in experiment [2].
For `COC(=O)c1cccc(-c2cc(COCC3(c4ccccc4)CCNCC3)cc(C(F)(F)F)c2)c1`, the IC50 in experiment [1] (setting [3]) fell in the range of 0.01 to 100 nM; in experiment [2], 100 to 300 nM.
Take `CC(C)OC(=O)c1cccc(-c2cc(COCC3(c4ccccc4)CCNCC3)cc(C(F)(F)F)c2)c1`: the IC50 in experiment [1] (setting [3]) is 100 to 300 nM; in experiment [2], above 300 nM.
Regarding `O=C(Nc1ccc(-c2cc(COCC3(c4ccccc4)CCNCC3)cc(C(F)(F)F)c2)cc1)OCc1ccccc1`, the 50% inhibitory concentration (IC50) in experiment [1] (setting [3]) and in experiment [2] was 0.01 to 100 nM throughout.
For the molecule `FC(F)(F)c1cc(COCC2(c3ccccc3)CCNCC2)cc(-c2cccc(OCc3ccccc3)c2)c1`, the IC50 in experiment [1] (setting [3]) and in experiment [2] was 0.01 to 100 nM throughout.
Consider `Fc1cc(-c2cc(COCC3(c4ccccc4)CCNCC3)cc(C(F)(F)F)c2)cc(F)c1F`, for which the IC50 in experiment [1] (setting [3]) and in experiment [2] was 0.01 to 100 nM throughout.
With `CCS(=O)(=O)c1ccc(-c2cc(COCC3(c4ccccc4)CCNCC3)cc(C(F)(F)F)c2)cc1`, the IC50 lay in the range of 0.01 to 100 nM in experiment [1] (setting [3]) and 100 to 300 nM in experiment [2].
For `C[C@@H](OCC1(c2ccccc2)CCN(C)CC1)c1cc(-c2ccc(C#N)cc2)cc(C(F)(F)F)c1`, the IC50 in experiment [1] and in experiment [2] was 0.01 to 100 nM each time.
For `CN1CCC(COCc2cc(-c3ccc(C#N)cc3)cc(C(F)(F)F)c2)(c2ccccc2F)CC1`, the IC50 in experiment [1] and in experiment [2] was 0.01 to 100 nM each time.
Consider `COc1cc(F)c(-c2cc(COCC3(c4ccccc4)CCNCC3)cc(C(F)(F)F)c2)cc1F`, for which the IC50 in experiment [1] (setting [3]) and in experiment [2] was 0.01 to 100 nM each time.
With `COc1cc(-c2cc(COCC3(c4ccccc4)CCNCC3)cc(C(F)(F)F)c2)ccc1C#N`, the IC50 in experiment [1] (setting [3]) and in experiment [2] was 0.01 to 100 nM throughout.
`N#Cc1cc(F)c(-c2cc(COCC3(c4ccccc4)CCNCC3)cc(C(F)(F)F)c2)cc1F`: the half-inhibitory concentration (IC50) in experiment [1] (setting [3]) and in experiment [2] was 0.01 to 100 nM throughout.
In the case of `COc1c(F)cc(-c2cc(COCC3(c4ccccc4)CCNCC3)cc(C(F)(F)F)c2)cc1F`, the half-inhibitory concentration (IC50) in experiment [1] (setting [3]) and in experiment [2] was 0.01 to 100 nM in each case.
Take `COc1ccc(-c2cc(COCC3(c4ccccc4)CCNCC3)cc(C(F)(F)F)c2)c(F)c1F`: the IC50 in experiment [1] (setting [3]) and in experiment [2] was 0.01 to 100 nM throughout.
With `COc1c(F)cc(-c2cc(COCC3(c4ccccc4)CCN(C)CC3)cc(C(F)(F)F)c2)cc1F`, the IC50 in experiment [1] and in experiment [2] was 0.01 to 100 nM throughout.
For `COc1cc(-c2cc(COCC3(c4ccccc4)CCN(C)CC3)cc(C(F)(F)F)c2)ccc1C#N`, the IC50 in experiment [1] and in experiment [2] was 0.01 to 100 nM each time.
`COc1cc(F)c(-c2cc(COCC3(c4ccccc4)CCN(C)CC3)cc(C(F)(F)F)c2)cc1F`: the IC50 in experiment [1] and in experiment [2] was 0.01 to 100 nM in each case.
Take `CN1CCC(COCc2cc(-c3cc(F)c(C#N)cc3F)cc(C(F)(F)F)c2)(c2ccccc2)CC1`: the IC50 in experiment [1] and in experiment [2] was 0.01 to 100 nM each time.
On to `CN1CCC(COCc2cc(-c3ccc(C#N)cc3)cc(C(F)(F)F)c2)(c2ccc(F)cc2F)CC1`, for which the IC50 in experiment [1] and in experiment [2] was 0.01 to 100 nM each time.
`COc1ccc(-c2cc(COCC3(c4ccccc4)CCN(C)CC3)cc(C(F)(F)F)c2)c(F)c1F`: the IC50 in experiment [1] and in experiment [2] was 0.01 to 100 nM each time.
For the molecule `COc1ccc(-c2cc(COCC3(c4ccccc4)CCN(C)CC3)cc(C(F)(F)F)c2)cc1C`, the IC50 in experiment [1] and in experiment [2] was 0.01 to 100 nM throughout.
For `N#Cc1ccc(-c2cc(COCC3(c4ccc(F)cc4C#N)CCNCC3)cc(C(F)(F)F)c2)cc1`, the IC50 in experiment [1] (setting [3]) and in experiment [2] was 0.01 to 100 nM in each case.
Take `CN1CCC(COCc2cc(-c3ccc(C#N)cc3)cc(C(F)(F)F)c2)(c2cccc(C#N)c2)CC1`: the IC50 in experiment [1] and in experiment [2] was 0.01 to 100 nM in each case.
Take `N#Cc1ccc(-c2cc(COCC3(c4ccc(F)cc4-c4ccccc4)CCNCC3)cc(C(F)(F)F)c2)cc1`: the IC50 lay within 100 to 300 nM in experiment [1] (setting [3]) and 0.01 to 100 nM in experiment [2].
Take `N#Cc1ccc(-c2cc(COCC3(c4ccc(F)cc4Br)CCNCC3)cc(C(F)(F)F)c2)cc1`: the IC50 in experiment [1] (setting [3]) and in experiment [2] was 0.01 to 100 nM throughout.
Turning to `N#Cc1ccc(-c2cc(COCC3(c4cccc(Cl)c4)CCNCC3)cc(C(F)(F)F)c2)cc1`, the IC50 in experiment [1] (setting [3]) and in experiment [2] was 0.01 to 100 nM each time.
For the molecule `CN1CCC(COCc2cc(-c3ccc(C#N)cc3)cc(C(F)(F)F)c2)(c2cccnc2)CC1`, the IC50 in experiment [1] and in experiment [2] was 0.01 to 100 nM in each case.
With `N#Cc1ccc(-c2cc(COCC3(c4ccc(F)c(F)c4)CCNCC3)cc(C(F)(F)F)c2)cc1`, the IC50 in experiment [1] (setting [3]) and in experiment [2] was 0.01 to 100 nM each time.
As to `CN1CCC(COCc2cc(-c3ccc(C#N)cc3)cc(C(F)(F)F)c2)(c2ccc(F)c(F)c2)CC1`, the IC50 in experiment [1] and in experiment [2] was 0.01 to 100 nM throughout.
Regarding `CN1CCC(COCc2cc(-c3ccc(C#N)cc3)cc(C(F)(F)F)c2)(c2ccc(Br)cc2)CC1`, the IC50 in experiment [1] and in experiment [2] was 0.01 to 100 nM throughout.
In the case of `CN1CCC(COCc2cc(-c3ccc(C#N)cc3)cc(C(F)(F)F)c2)(c2cccc(Br)c2)CC1`, the IC50 in experiment [1] and in experiment [2] was 0.01 to 100 nM in each case.
Consider `N#Cc1ccc(-c2cc(COCC3(c4ccc(Br)cc4)CCNCC3)cc(C(F)(F)F)c2)cc1`, for which the IC50 in experiment [1] (setting [3]) and in experiment [2] was 0.01 to 100 nM throughout.
`N#Cc1ccc(-c2cc(COCC3(c4cccc(Br)c4)CCNCC3)cc(C(F)(F)F)c2)cc1`: the IC50 in experiment [1] (setting [3]) and in experiment [2] was 0.01 to 100 nM each time.
As to `CN1CCC(COCc2cc(-c3ccc(C#N)cc3)cc(C(F)(F)F)c2)(c2ccc(C#N)cc2)CC1`, the IC50 in experiment [1] and in experiment [2] was 0.01 to 100 nM in each case.
`CN1CCC(COCc2cc(-c3ccc(C#N)cc3)cc(C(F)(F)F)c2)(c2cccc(Cl)c2)CC1`: the IC50 in experiment [1] and in experiment [2] was 0.01 to 100 nM throughout.
As for `CN1CCC(COCc2cc(-c3ccc(C#N)cc3)cc(C(F)(F)F)c2)(c2cccc(C(F)(F)F)c2)CC1`, the IC50 in experiment [1] and in experiment [2] was 0.01 to 100 nM each time.
For `Cc1cc(-c2cc(COCC3(c4cccnc4)CCN(C)CC3)cc(C(F)(F)F)c2)ccc1C#N`, the IC50 in experiment [1] and in experiment [2] was 0.01 to 100 nM throughout.
As for `CN1CCC(COCc2cc(-c3ccc(C#N)cc3)cc(C(F)(F)F)c2)(c2ccncc2)CC1`, the IC50 in experiment [1] and in experiment [2] was 0.01 to 100 nM each time.
In the case of `CN1CCC(COCc2cc(-c3ccc(C#N)cc3)cc(C(F)(F)F)c2)(c2ccc(-c3ccco3)cc2)CC1`, the figures for the IC50 in experiment [1] and in experiment [2] were 100 to 300 nM and 0.01 to 100 nM, respectively.
The matching figures for `COc1cccc(C2(COCc3cc(-c4ccc(C#N)cc4)cc(C(F)(F)F)c3)CCN(C)CC2)c1`: 0.01 to 100 nM and 0.01 to 100 nM.

Source of the values: patent publication US20070249607A1, “NK-1 AND SEROTONIN TRANSPORTER INHIBITORS” (Bristol-Myers Squibb Company, priority 2006, published 2007).
